Data reported in patent publication US20260234115A1, “LIPID COMPOUNDS, COMPOSITIONS, AND USES THEREOF” (Liberate Bio, Inc., priority 2023, published 2026).
Marks after values point to notes of the source that are not given here. Values belong to the compound of their own block, whether it stands above or below them.

How the values were obtained:
[1] = Dynamic light scattering: LNP particle size and PDI; type: physicochemical; settings: for PDI N/P:6 / Size (nm) N/P:6 / PDI N/P:3 / Size (nm) N/P:3: LNP
Procedure, shortened: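 The LNPs were made by microfluidic mixing of the lipids in ethanol with mRNA in pH 4.0 citrate, then dialyzed into PBS pH 7.4. They were diluted in PBS pH 7.4, and particle size and PDI were measured by dynamic light scattering.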

[2] = Plate-based fluorescence (RiboGreen) assay: nucleic acid cargo content and encapsulation efficiency of LNPs; type: physicochemical; settings: for EE (%) N/P:6 / EE (%) N/P:3: LNP
Procedure, shortened: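 LNPs made by microfluidic mixing of ethanolic lipids with mRNA in pH 4.0 citrate, dialyzed into PBS pH 7.4. Cargo quantified by RiboGreen fluorescence against a standard curve: Triton-lysed samples give total, TE-only samples give free cargo; encapsulation efficiency from their ratio.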

mouse organs = assay: In vivo activity screening in mice: organ mean total flux (p/s) of luciferase activity after injection of F2 LNP pools (Table 6, FIG. 7A-7C); settings: luciferase mRNA
Procedure, shortened: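 C57BL/6J mice given one tail-vein injection of pooled Formulation F2 LNPs carrying firefly luciferase mRNA (0.25-3 mg/kg) in PBS. At 4-6 h, s.c. D-luciferin given; organs imaged ex vivo by IVIS within 10-15 min, after saline cardiac perfusion. Mean total flux (p/s) per organ ROI.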

[3] = LNP compositions for Formulation F2 Study
[4] = LNP compositions for in vivo mouse study, four formulations (F1-F4) of the lipid compound pooled, or pools of four compounds (sixteen compositions)
[5] = LNP compositions for in vivo mouse study, four formulations (F1-F4) pooled, or pools of four compounds

- PDI [1, 3]: 0.071
- Particle Size (nm) [1, 3]: 119 nm
- Particle Size (nm) [1, 4]: 101 nm
- PDI [1, 5]: 0.07
- PDI N/P:6 ([1]; Formulation F1, N/P 6): 0.08
- Size (nm) N/P:6 ([1]; Formulation F1, N/P 6): 87 ± 6 nm
- PDI N/P:6 ([1]; Formulation F2, N/P 6): 0.06
- Size (nm) N/P:6 ([1]; Formulation F2, N/P 6): 117 ± 4 nm
- PDI N/P:6 ([1]; Formulation F3, N/P 6): 0.12
- Size (nm) N/P:6 ([1]; Formulation F3, N/P 6): 100 ± 2 nm
- PDI N/P:6 ([1]; Formulation F4, N/P 6): 0.19
- Size (nm) N/P:6 ([1]; Formulation F4, N/P 6): 79 ± 1 nm
- EE % [2, 3]: 98%
- EE % [2, 5]: 97%
- mRNA Content [2, 5]: 108 µg/mL
- EE (%) N/P:6 ([2]; Formulation F1, N/P 6): 100%
- EE (%) N/P:6 ([2]; Formulation F2, N/P 6): 99%
- EE (%) N/P:6 ([2]; Formulation F3, N/P 6): 95%
- EE (%) N/P:6 ([2]; Formulation F4, N/P 6): 99%
Compound: CCCCC/C=C\CCOC(=O)CCCCCC(=O)OCC(COC(=O)CCCCCC(=O)OCC/C=C\CCCCC)(COC(=O)CCC(CCCCCC)OC(=O)NCCN1CCCC1)COC(=O)CC12CC3CC(CC(C3)C1)C2 (stereo not shown) [Compound 8, O7-[2-[[2-(1-adamantyl)acetyl]oxymethyl]-2-[[7-[(Z)-non-3-enoxy]-7-oxo-heptanoyl]oxymethyl]-3-[4-(2-pyrrolidin-1-ylethylcarbamoyloxy)decanoyloxy]propyl]O1-[(Z)-non-3-enyl]heptanedioate]
- Organ Mean Total Flux Femur (mouse organs; Mouse 1, dose 0.3 mg/kg): 11.1 p/s (×10^6)
- Organ Mean Total Flux Heart (mouse organs; Mouse 1, dose 0.3 mg/kg): 2.8 p/s (×10^6)
- Organ Mean Total Flux Kidney (mouse organs; Mouse 1, dose 0.3 mg/kg): 0.8 p/s (×10^6)
- Organ Mean Total Flux Liver (mouse organs; Mouse 1, dose 0.3 mg/kg): 72.4 p/s (×10^6)
- Organ Mean Total Flux Lung (mouse organs; Mouse 1, dose 0.3 mg/kg): 20.1 p/s (×10^6)
- Organ Mean Total Flux Muscle (mouse organs; Mouse 1, dose 0.3 mg/kg): 22.7 p/s (×10^6)
- Organ Mean Total Flux Pancreas (mouse organs; Mouse 1, dose 0.3 mg/kg): 4.4 p/s (×10^6)
- Organ Mean Total Flux Spleen (mouse organs; Mouse 1, dose 0.3 mg/kg): 10.7 p/s (×10^6)
- Organ Mean Total Flux Femur (mouse organs; Mouse 14, dose 0.5 mg/kg): 9.8 p/s (×10^6)
- Organ Mean Total Flux Heart (mouse organs; Mouse 14, dose 0.5 mg/kg): 2.2 p/s (×10^6)
- Organ Mean Total Flux Kidney (mouse organs; Mouse 14, dose 0.5 mg/kg): 3.6 p/s (×10^6)
- Organ Mean Total Flux Liver (mouse organs; Mouse 14, dose 0.5 mg/kg): 257.0 p/s (×10^6)
- Organ Mean Total Flux Lung (mouse organs; Mouse 14, dose 0.5 mg/kg): 6.4 p/s (×10^6)
- Organ Mean Total Flux Muscle (mouse organs; Mouse 14, dose 0.5 mg/kg): 46.9 p/s (×10^6)
- Organ Mean Total Flux Pancreas (mouse organs; Mouse 14, dose 0.5 mg/kg): 4.0 p/s (×10^6)
- Organ Mean Total Flux Spleen (mouse organs; Mouse 14, dose 0.5 mg/kg): 10.4 p/s (×10^6)

- PDI [1, 3]: 0.139
- Particle Size (nm) [1, 3]: 125.5 nm
- Particle Size (nm) [1, 4]: 91.7 nm
- PDI [1, 5]: 0.176
- PDI N/P:3 ([1]; Formulation F1, N/P 3): 0.208
- Size (nm) N/P:3 ([1]; Formulation F1, N/P 3): 86 ± 4 nm
- PDI N/P:6 ([1]; Formulation F1, N/P 6): 0.09
- Size (nm) N/P:6 ([1]; Formulation F1, N/P 6): 78 ± 3 nm
- PDI N/P:3 ([1]; Formulation F2, N/P 3): 0.097
- Size (nm) N/P:3 ([1]; Formulation F2, N/P 3): 102 ± 3 nm
- PDI N/P:6 ([1]; Formulation F2, N/P 6): 0.122
- Size (nm) N/P:6 ([1]; Formulation F2, N/P 6): 96 ± 0 nm
- PDI N/P:3 ([1]; Formulation F3, N/P 3): 0.081
- Size (nm) N/P:3 ([1]; Formulation F3, N/P 3): 106 ± 2 nm
- PDI N/P:6 ([1]; Formulation F3, N/P 6): 0.092
- Size (nm) N/P:6 ([1]; Formulation F3, N/P 6): 100 ± 3 nm
- PDI N/P:3 ([1]; Formulation F4, N/P 3): 0.278
- Size (nm) N/P:3 ([1]; Formulation F4, N/P 3): 92 ± 4 nm
- PDI N/P:6 ([1]; Formulation F4, N/P 6): 0.227
- Size (nm) N/P:6 ([1]; Formulation F4, N/P 6): 78 ± 1 nm
- EE % [2, 3]: 98%
- EE % [2, 5]: 99%
- mRNA Content [2, 5]: 101.7 µg/mL
- EE (%) N/P:3 ([2]; Formulation F1, N/P 3): 98%
- EE (%) N/P:6 ([2]; Formulation F1, N/P 6): 100%
- EE (%) N/P:3 ([2]; Formulation F2, N/P 3): 98%
- EE (%) N/P:6 ([2]; Formulation F2, N/P 6): 100%
- EE (%) N/P:3 ([2]; Formulation F3, N/P 3): 96%
- EE (%) N/P:6 ([2]; Formulation F3, N/P 6): 100%
- EE (%) N/P:3 ([2]; Formulation F4, N/P 3): 98%
- EE (%) N/P:6 ([2]; Formulation F4, N/P 6): 100%
Compound: CCCCC/C=C\CCOC(=O)CCCCCCC(=O)OCC(COC(=O)CCCCCCC(=O)OCC/C=C\CCCCC)(COC(=O)CCCCCCC(=O)OCC/C=C\CCCCC)COC(=O)CCC(CCCCCC)OC(=O)NCCN1CCCC1 (stereo not shown) [Compound 10, O8-[2,2-bis[[8-[(Z)-non-3-enoxy]-8-oxo-octanoyl]oxymethyl]-3-[4-(2-pyrrolidin-1-ylethylcarbamoyloxy)decanoyloxy]propyl]O1-[(Z)-non-3-enyl]octanedioate]
- Organ Mean Total Flux Femur (mouse organs; Mouse 1, dose 0.3 mg/kg): 7.1 p/s (×10^6)
- Organ Mean Total Flux Heart (mouse organs; Mouse 1, dose 0.3 mg/kg): 4.3 p/s (×10^6)
- Organ Mean Total Flux Kidney (mouse organs; Mouse 1, dose 0.3 mg/kg): 81.1 p/s (×10^6)
- Organ Mean Total Flux Liver (mouse organs; Mouse 1, dose 0.3 mg/kg): 12560 p/s (×10^6)
- Organ Mean Total Flux Lung (mouse organs; Mouse 1, dose 0.3 mg/kg): 41.5 p/s (×10^6)
- Organ Mean Total Flux Muscle (mouse organs; Mouse 1, dose 0.3 mg/kg): 6.2 p/s (×10^6)
- Organ Mean Total Flux Pancreas (mouse organs; Mouse 1, dose 0.3 mg/kg): 2.7 p/s (×10^6)
- Organ Mean Total Flux Spleen (mouse organs; Mouse 1, dose 0.3 mg/kg): 12.3 p/s (×10^6)
- Organ Mean Total Flux Femur (mouse organs; Mouse 14, dose 0.5 mg/kg): 6.5 p/s (×10^6)
- Organ Mean Total Flux Heart (mouse organs; Mouse 14, dose 0.5 mg/kg): 2.8 p/s (×10^6)
- Organ Mean Total Flux Kidney (mouse organs; Mouse 14, dose 0.5 mg/kg): 3.7 p/s (×10^6)
- Organ Mean Total Flux Liver (mouse organs; Mouse 14, dose 0.5 mg/kg): 1175 p/s (×10^6)
- Organ Mean Total Flux Lung (mouse organs; Mouse 14, dose 0.5 mg/kg): 16.2 p/s (×10^6)
- Organ Mean Total Flux Muscle (mouse organs; Mouse 14, dose 0.5 mg/kg): 15.1 p/s (×10^6)
- Organ Mean Total Flux Pancreas (mouse organs; Mouse 14, dose 0.5 mg/kg): 4.0 p/s (×10^6)
- Organ Mean Total Flux Spleen (mouse organs; Mouse 14, dose 0.5 mg/kg): 10.2 p/s (×10^6)
